Measured values reported in US20240279233A1, “MACROCYCLIC TAK1 INHIBITORS” (Aqilion AB, priority 2021, published 2024).
Values after ≈ are worked out from the molar mass of the structure shown. Where two headings read alike, the source gives them in different places. Each block holds one compound with its values, some of them ahead of it.

Columns and labels:
[1] = amide bond, 14-membered ring
[2] = target: human recombinant TAK1-TAB1 Kinase (TAK1 (1-303) and TAB1 (437-end)) (Homo sapiens (Human), UniProt O43318); assay: TAK1 biochemical ADP-Glo kinase assay; conditions: MBP substrate
Sequence of human recombinant TAK1-TAB1 Kinase (TAK1 (1-303) and TAB1 (437-end)) (O43318 other isoform, or with tags, fused parts or gaps): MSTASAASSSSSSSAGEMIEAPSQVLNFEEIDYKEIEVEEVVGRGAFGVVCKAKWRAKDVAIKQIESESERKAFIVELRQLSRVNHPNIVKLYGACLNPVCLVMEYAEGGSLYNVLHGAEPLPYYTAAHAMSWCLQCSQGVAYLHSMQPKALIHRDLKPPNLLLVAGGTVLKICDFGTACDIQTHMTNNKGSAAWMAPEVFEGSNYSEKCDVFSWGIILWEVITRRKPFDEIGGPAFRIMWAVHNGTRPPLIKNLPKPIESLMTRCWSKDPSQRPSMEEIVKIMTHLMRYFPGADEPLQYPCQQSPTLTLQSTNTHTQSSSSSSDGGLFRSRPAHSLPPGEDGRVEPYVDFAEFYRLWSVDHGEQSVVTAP
Outline: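 Inhibition of human recombinant TAK1-TAB1 kinase was measured with a Promega ADP-Glo luminescence assay in 384-well plates. Compounds in 5% DMSO were pre-incubated 10 min with 2 μl TAK1-TAB1 (7.5 ng/μl) in buffer of Tris pH 7.5, MgCl2, DTT and BSA. MBP substrate and ATP were then added for 1 hour at room temperature. ADP-Glo reagent and kinase detection substrate followed, luminescence was read on an Envision, and IC50 came from non-linear regression.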

[3] = tested on: phosphorylated p38 (TAK1 activity) in THP-1 cells; assay: Cell-based p38 phosphorylation assay (Western blot); conditions: PMA-differentiated THP-1 cells, compound 30 minutes then 200 ng/ml LPS 30 minutes; for IC50: Homo sapiens, 0.5 h, read-out: IC50 (nM) in phospho-p38 cell assay
Experimental: The cellular activity of example compounds 2, 3 and 9 and the comparative example (i.e. takinib) for inhibiting TAK1 activity was evaluated using an in vitro functional cell assay.
THP-1 cells were incubated at 37° C. in 5% CO2. THP-1 cells were cultured in RPMI 1640, 10% FBS, 1% Penicillin-Streptomycin.
THP-1 cells were treated with 100 nM phorbol 12-myristate 13-acetate (PMA) to induce macrophage differentiation and seeded at the density of 1×10^6 cells/well (2 ml/well in a 6-well plate) for 72 hours. The cell culture media was then replaced with PMA-free media and incubated for further 48 hours. Test compounds were prepared as 200×final assay concentration stocks in DMSO (final concentrations in the assay were 10-0.03 μM in 0.5% DMSO, details provided below). Following THP-1 cell differentiation, cells were treated with different concentrations of the control compound NG25 (CAS No.:1315355-93-1, Tan L, et al. J Med Chem. 2015, 58(1), 183-96) or test compounds (10 μl/well) for 30 minutes followed by 200 ng/ml LPS for 30 minutes.
Test items were kept as 10 mM stock solutions in 100% DMSO. The serial dilution of compounds was prepared as 200× serial dilutions of desired final concentration in […] to reach 0.5% DMSO working solution (see Table 3 below).
Dilution series of compounds from 10 μM final highest concentration to 0.03 μM final low concentration were first made in DMSO (see Table 3), 10 μl of each dilution was mixed into 2 ml of cell cultures (0.5% DMSO per well).
10 μl of DMSO was added to the control. All plates were incubated at 37° C., 5% CO2 for 30 minutes and LPS was added to a final concentration of 200 ng/ml.
For Western blot analysis, cells were lysed (50 mM Tris, 150 mM NaCl, 1 mM EDTA, 1% Triton-X100, 1 mM DTT, complete protease and PhosStop phosphatase inhibitor) after indicated treatment and run on NuPAGE Bis-Tris gel 4-12% gradient (Invitrogen). Following transfer to PVDF membrane and blocking in 5% BSA in PBST, membranes were incubated with primary antibody overnight (specific for phosphorylated p38; Cell Signaling, 1:1,000 dilution). After incubation with species-specific secondary antibodies for 1 hour at room temperature, the membranes were visualized with the ECL SuperSignal™ West Pico PLUS Chemiluminescent Substrate (Thermo Scientific). The images were captured with iBright Western Blot Imaging Systems (Invitrogen) and quantified with ImageJ software (Java-based image processing program developed at the National Institutes of Health and the Laboratory for Optical and Computational Instrumentation). Anti-β-actin antibodies were used as the loading control for whole-cell extracts in all samples (anti-β actin; Sigma-Aldrich, 1:5000 dilution, 1 hour incubation).
For immunoblotting, cells were lysed directly in six-well plates by incubating for 30 min at 4° C. in 60 μl Triton lysis buffer. The lysates were centrifuged for 15 minutes at 13,000×g at 4° C. Equal amount of protein from each supernatants were resuspended with 5× sample buffer. Samples were boiled for 10 minutes and then resolved by 4-12% SDS-PAGE (100 V). Proteins were transferred from gel to PVDF membranes ([…] pore size) following the recommended setting (90 minutes, 85 V). […]

[4] = Solubility assay in phosphate buffer; conditions: phosphate buffer, pH 7.4, aqueous buffer, kinetic from dmso stock, Solubility (μM), phosphate buffer 100 mM, pH 7.4, room temperature, 20-24 h, LC-UV
Experimental: The aqueous solubility of selected example compounds was determined as follows; 6 μL of DMSO stock solution of the selected example was added to 594 μL phosphate buffer (100 mM, pH 7.4). The resulting mixture was equilibrated over night (20-24 h, Alligator Shaker, room temperature). The mixture was then filtered (Millex LH 0.45 μm) and the concentration/solubility was determined by LC-UV quantification.

[5] = amide bond, 14-membered ring; remark: listed apart in the source
[6] = 10 μM ATP, read-out: TAK1 Mean IC50 (nM) @ 10 μM ATP
[7] = 1 mM ATP, read-out: TAK1 Mean IC50 (nM) @ 1 mM ATP

SMILES: CCOC(=O)c1cnc(Cl)c2nc3n(c12)[C@@H](C)CCCCNC(=O)c1cccc(c1)C(=O)N3
ring closure, isolated yield ([1]; from CCOC(=O)c1cnc(Cl)c2nc(NC(=O)c3cccc(C(=O)O)c3)n([C@@H](C)CCCCN)c12, TCFH/NMI, MeCN/DMF, 1.29 mM, 0.0 °C, 4.0 h): 49%

SMILES: CCCn1c(NC(=O)c2cccc(C(N)=O)c2)nc2ccccc21 [takinib, N-(1-propyl-1H-benzo[d]imidazol-2-yl)isophthalamide, reference compound]
IC50 [2, 6]: 17 nM | IC50 [2, 7]: 280 nM | IC50 (nM) in phospho-p38 cell assay [3]: inactive | solubility [4]: 0.9 µM (≈ 0.29 µg/mL)

SMILES: COC(=O)c1cc(Br)cc2nc3n(c12)[C@@H](C)CCCCNC(=O)c1cccc(c1)C(=O)N3
ring closure, isolated yield ([1]; from COC(=O)c1cc(Br)cc2nc(NC(=O)c3cccc(C(=O)O)c3)n([C@@H](C)CCCCN)c12, TCFH/NMI, DMF/MeCN, 1.4 mM, 0.0 °C, 16.0 h): 30%

SMILES: Cc1nnc(-c2cccc3nc4n(c23)C(C)CCCCNC(=O)c2cccc(c2)C(=O)N4)o1 (stereo not shown)
ring closure, isolated yield ([1]; from Cc1nnc(-c2cccc3nc(NC(=O)c4cccc(C(=O)O)c4)n(C(C)CCCCN)c23)o1, HATU/DIEA, THF, 0.5 mM, 25.0 °C, 16.0 h, 2 steps): 13%

SMILES: C#Cc1cccc2nc3n(c12)[C@@H](C)CCCCNC(=O)c1cccc(c1)C(=O)N3
ring closure, isolated yield ([1]; from C#Cc1cccc2nc(NC(=O)c3cccc(C(=O)O)c3)n([C@@H](C)CCCCN)c12, TCFH/NMI, MeCN/DMF, 0.82 mM, 0.0 °C, 4.0 h): 73%

SMILES: C[C@H]1CCCCNC(=O)c2cccc(c2)C(=O)Nc2nc3ccnc(Cl)c3n21
ring closure, isolated yield ([1]; from C[C@@H](CCCCN)n1c(NC(=O)c2cccc(C(=O)O)c2)nc2ccnc(Cl)c21, TCFH/NMI, DMF/MeCN, 0.6 mM, 25.0 °C, 3.0 h): 20%

SMILES: O=C1NCCCCCn2c(nc3cc(F)ccc32)NC(=O)c2cccc1c2 [Example 99, (E)-1^5-fluoro-1^2,1^3-dihydro-1^1H-2,6-diaza-1(2,1)-benzo[d]imidazola-4(1,3)-benzenacycloundecaphane-3,5-dione]
ring closure, yield after HPLC ([5]; from NCCCCCn1c(NC(=O)c2cccc(C(=O)O)c2)nc2cc(F)ccc21, HATU/DIEA, THF, 0.5 mM, 50.0 °C, 16.0 h): 16% | IC50 [2, 6]: 4 nM | solubility [4]: 0.2 µM (≈ 0.0733 µg/mL)

SMILES: CN1CCN(Cc2ccc3c(c2)nc2n3CCCCCNC(=O)c3cccc(c3)C(=O)N2)CC1 [Example 3, 1^5-((4-methylpiperazin-1-yl)methyl)-1^1H-2,6-diaza-1(2,1)-benzo[d]imidazola-4(1,3)-benzenacycloundecaphane-3,5-dione]
IC50 [2, 6]: 1 nM | IC50 [3]: 4.5 nM | solubility [4]: 31.5 µM (≈ 14.5 µg/mL) | ring closure, isolated yield ([1]; from CN1CCN(Cc2ccc3c(c2)nc(NC(=O)c2cccc(C(=O)O)c2)n3CCCCCN)CC1, HATU/DIEA, DMF, 2.4 mM, 1.17 h): 13%

SMILES: CN1CCN(Cc2ccc3c(c2)nc2n3CCCCCNC(=O)c3cccc(n3)C(=O)N2)CC1 [Example 102, (E)-1^5-((4-methylpiperazin-1-yl)methyl)-1^2,1^3-dihydro-1^1H-2,6-diaza-1(2,1)-benzo[d]imidazola-4(2,6)-pyridinacycloundecaphane-3,5-dione]
ring closure, yield after HPLC ([5]; from CN1CCN(Cc2ccc3c(c2)nc(NC(=O)c2cccc(C(=O)O)n2)n3CCCCCN)CC1, T3P/DIEA, DMF, 50.0 mM, 25.0 °C, 1.5 h): 30% | IC50 [2, 6]: 9 nM | solubility [4]: 88 µM (≈ 40.6 µg/mL)

SMILES: CC1CCCCNC(=O)c2cccc(c2)C(=O)Nc2nc3cccc(N4CCCC4=O)c3n21 (stereo not shown)
ring closure, isolated yield ([1]; from CC(CCCCN)n1c(NC(=O)c2cccc(C(=O)O)c2)nc2cccc(N3CCCC3=O)c21, TCFH/NMI, DMF/MeCN, 4.2 mM, 25.0 °C, 2.5 h): 7.7%

Second part, led by results:

IC50 [2, 6]: 3 nM | IC50 [3]: 200 nM | solubility [4]: 0.5 µM (≈ 0.174 µg/mL)
SMILES: O=C1NCCCCCn2c(nc3ccccc32)NC(=O)c2cccc1c2 [Example 2, 1^1H-2,6-diaza-1(2,1)-benzo[d]imidazola-4(1,3)-benzenacycloundecaphane-3,5-dione]
ring closure, isolated yield ([1]; from NCCCCCn1c(NC(=O)c2cccc(C(=O)O)c2)nc2ccccc21, HATU/DIEA, DMF, 51.0 mM, 25.0 °C, 16.0 h): 2%

IC50 [2, 6]: 2 nM | solubility [4]: 10 µM (≈ 4.7 µg/mL)
SMILES: C[C@@H]1CCCCNC(=O)c2cccc(c2)C(=O)Nc2nc3cccc(S(=O)(=O)N(C)C)c3n21 [Example 46, (R,E)-N,N,11-trimethyl-3,5-dioxo-1^2,1^3-dihydro-1^1H-2,6-diaza-1(2,1)-benzo[d]imidazola-4(1,3)-benzenacycloundecaphane-1^7-sulfonamide]
ring closure, yield after HPLC ([5]; from C[C@H](CCCCN)n1c(NC(=O)c2cccc(C(=O)O)c2)nc2cccc(S(=O)(=O)N(C)C)c21, HATU/DIEA, THF, 0.5 mM, 50.0 °C, 16.0 h): 24%

IC50 [2, 6]: 3 nM | IC50 [2, 7]: 6 nM | solubility [4]: 95 µM (≈ 43.5 µg/mL)
SMILES: Cc1nnc(-c2cccc3nc4n(c23)[C@H](C)CCCCNC(=O)c2cccc(c2)C(=O)N4)n1C [Example 57, (R,E)-1^7-(4,5-dimethyl-4H-1,2,4-triazol-3-yl)-11-methyl-1^2,1^3-dihydro-1^1H-2,6-diaza-1(2,1)-benzo[d]imidazola-4(1,3)-benzenacycloundecaphane-3,5-dione]
ring closure, yield after HPLC ([5]; from Cc1nnc(-c2cccc3nc(NC(=O)c4cccc(C(=O)O)c4)n([C@H](C)CCCCN)c23)n1C, HATU/DIEA, THF, 0.5 mM, 50.0 °C, 23.0 h): 31%

IC50 [2, 6]: 366 nM | solubility [4]: 1.1 µM (≈ 0.501 µg/mL)
SMILES: COc1ncccc1-c1cccc2nc3n(c12)CCCCCNC(=O)c1cccc(c1)C(=O)N3 [Example 28, (E)-1^7-(2-methoxypyridin-3-yl)-1^2,1^3-dihydro-1^1H-2,6-diaza-1(2,1)-benzo[d]imidazola-4(1,3)-benzenacycloundecaphane-3,5-dione]
ring closure, yield after HPLC ([5]; from COc1ncccc1-c1cccc2nc(NC(=O)c3cccc(C(=O)O)c3)n(CCCCCN)c12, HATU/DIEA, DMF, 0.49 mM, 16.0 h): 19%

IC50 [2, 6]: 4 nM | solubility [4]: 95 µM (≈ 43.8 µg/mL)
SMILES: C[C@@H]1CCCCNC(=O)c2cccc(c2)C(=O)Nc2nc3cccc(N4CCN(C)C4=O)c3n21 [Example 65, (R,E)-11-methyl-1^7-(3-methyl-2-oxoimidazolidin-1-yl)-1^2,1^3-dihydro-1^1H-2,6-diaza-1(2,1)-benzo[d]imidazola-4(1,3)-benzenacycloundecaphane-3,5-dione]
ring closure, isolated yield ([1]; from C[C@H](CCCCN)n1c(NC(=O)c2cccc(C(=O)O)c2)nc2cccc(N3CCN(C)C3=O)c21, HATU/DIEA, THF, 0.5 mM, 25.0 °C, 96.0 h): 15%
